Source: PubChem BioAssay (NCI)
Several values for one entry are separate records, joined by “and”; a condition that tells them apart may be missing. Equal entries are not always repeated.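 Values below derive from 48-hour exposures of cells grown in 96-well plates, with endpoints linearly interpolated between the two concentrations bracketing the appropriate inhibition level. The concentration for 50% growth inhibition is given as GI50. TGI: concentration producing complete growth inhibition.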

How the values were obtained:
Assay in all cases: inhibition of tumour cell growth, NCI panel, 48 h
[1] = system: HCT-116 colon
[2] = system: A498 renal
[3] = system: SN12C renal
[4] = system: SF-539 CNS
[5] = system: KM12 colon
[6] = system: HOP-92 NSCLC
[7] = system: SNB-75 CNS
[8] = system: UO-31 renal
[9] = system: CAKI-1 renal
[10] = system: NCI-H226 lung

SMILES: CN(CCOc1ccc(NS(C)(=O)=O)cc1)CCc1ccc(NS(C)(=O)=O)cc1
- GI50 [1]: > 100 µM
- TGI [1]: > 100 µM
- GI50 [2]: 96 µM
- TGI [2]: > 100 µM
- GI50 [3]: > 100 µM
- TGI [3]: > 100 µM
- GI50 [4]: > 100 µM
- TGI [4]: > 100 µM
- GI50 [5]: > 100 µM
- TGI [5]: > 100 µM
- GI50 [6]: > 100 µM
- TGI [6]: > 100 µM
- GI50 [7]: > 100 µM
- TGI [7]: > 100 µM
- GI50 [8]: > 100 µM
- TGI [8]: > 100 µM
- GI50 [9]: > 100 µM
- TGI [9]: > 100 µM
- GI50 [10]: > 100 µM
- TGI [10]: > 100 µM

SMILES: N#C/C(=C/C=C/c1cccc(Cl)c1)S(=O)c1ccccc1 (stereo not given)
- GI50 [1]: 0.241 µM
- TGI [1]: 0.642 µM
- GI50 [2]: 1.8 µM
- TGI [2]: 3.53 µM
- GI50 [3]: 0.359 µM
- TGI [3]: 1.42 µM
- GI50 [4]: 0.281 µM
- TGI [4]: 0.882 µM
- GI50 [5]: 0.321 µM
- TGI [5]: 1.38 µM
- GI50 [6]: 0.398 µM
- TGI [6]: 1.62 µM
- GI50 [7]: 1.2 µM
- TGI [7]: 3.82 µM
- GI50 [8]: 0.358 µM
- TGI [8]: 1.71 µM
- GI50 [9]: 0.283 µM
- TGI [9]: 1.08 µM
- GI50 [10]: 1.14 µM
- TGI [10]: 3.68 µM

SMILES: C=C1C(=O)O[C@@H]2C[C@@H](C)[C@@H]3C=CC(=O)[C@@]3(C)[C@@H](OC(=O)CCCC(=O)O[C@H]3[C@@H]4C(=C)C(=O)O[C@@H]4C[C@@H](C)[C@@H]4C=CC(=O)[C@]43C)[C@H]12
- TGI [1]: 0.03 µM
- TGI [2]: 0.546 µM
- TGI [3]: 0.0938 µM
- TGI [4]: 0.185 µM
- TGI [5]: 0.662 µM
- TGI [6]: 0.104 µM
- TGI [7]: 0.482 µM
- TGI [8]: 0.289 µM
- TGI [9]: 0.187 µM
- TGI [10]: 1.35 µM

SMILES: O=S1(=O)CCC2=CC(C(F)(F)F)=CC(C(F)(F)F)=CN21
- TGI [1]: 0.712 µM
- TGI [2]: 3.84 µM
- TGI [3]: 3.38 µM
- TGI [4]: 3.8 µM
- TGI [5]: 3.54 µM
- TGI [6]: 4.26 µM
- TGI [7]: 4.39 µM
- TGI [8]: 2.05 µM
- TGI [9]: 2.03 µM
- TGI [10]: 5.58 µM

SMILES: Cc1nc(C(=O)OCc2ccccc2)cc(OCc2ccccc2)c1C
- GI50 [1]: 13.6 µM
- TGI [1]: 32.6 µM
- GI50 [2]: 27.9 µM
- TGI [2]: > 85.6 µM
- GI50 [3]: 17.5 µM
- TGI [3]: 35.4 µM
- GI50 [4]: 18.1 µM
- TGI [4]: 35.2 µM
- GI50 [5]: 29 µM
- TGI [5]: > 87.6 µM
- GI50 [6]: 14.7 µM
- TGI [6]: 30.8 µM
- GI50 [7]: 17.5 µM
- TGI [7]: 39.4 µM
- GI50 [8]: 18.3 µM
- TGI [8]: 39 µM
- GI50 [9]: 32.6 µM
- TGI [9]: > 100 µM
- GI50 [10]: 19.1 µM
- TGI [10]: 46.9 µM

SMILES: CCCC(=O)Nc1cc(/C=C/C(=O)N2C[C@@H]3C[C@]34C2=CC(=O)c2[nH]cc(C)c24)n(C)c1
- GI50 [1]: 0.03 µM
- TGI [1]: 8.32 µM and 69.9 µM
- TGI [2]: 0.689 µM and 0.478 µM
- GI50 [3]: 0.064 µM
- TGI [3]: 2.41 µM and 1.59 µM
- TGI [4]: 4.59 µM
- TGI [5]: 2.6 µM
- GI50 [6]: 0.282 µM
- TGI [6]: 1.96 µM and 0.741 µM
- GI50 [7]: 0.061 µM
- TGI [7]: 1.21 µM and 0.248 µM
- TGI [8]: 4.34 µM
- GI50 [9]: 0.0901 µM
- TGI [9]: 0.571 µM and 0.529 µM
- TGI [10]: 3.76 µM

SMILES: COC1CCC(OC)C(c2nc3sccn3c2/C=N/N=C(N)N)C1 (stereo not given)
- GI50 [1]: 4.9 µM
- TGI [1]: 37.7 µM
- GI50 [2]: 10.9 µM
- TGI [2]: 41.5 µM
- GI50 [3]: 22.4 µM
- TGI [3]: 56.3 µM
- GI50 [4]: 20.4 µM
- TGI [4]: 44 µM
- GI50 [5]: 16 µM
- TGI [5]: 40.2 µM
- GI50 [6]: 2.76 µM
- TGI [6]: 30.5 µM
- GI50 [7]: 6.44 µM
- TGI [7]: > 77.2 µM
- GI50 [8]: > 67.5 µM
- TGI [8]: > 100 µM
- GI50 [9]: > 10.5 µM
- TGI [9]: > 82.5 µM
- GI50 [10]: 13.6 µM
- TGI [10]: 47.5 µM

SMILES: O=C(C#Cc1ccccc1)NC/C=C/c1ccccc1
- TGI [1]: > 100 µM
- TGI [2]: > 100 µM
- TGI [3]: > 100 µM
- TGI [4]: > 100 µM
- TGI [5]: > 100 µM
- TGI [6]: 57.2 µM
- TGI [7]: 45.8 µM
- TGI [8]: > 100 µM
- TGI [9]: > 100 µM
- TGI [10]: 93.8 µM

SMILES: C/C(=N\NC(=S)N1CCCC1)c1ccccn1
- GI50 [1]: < 0.01 µM
- TGI [1]: 12.1 µM
- GI50 [2]: 0.0798 µM
- TGI [2]: 2.37 µM
- GI50 [3]: 0.0132 µM
- TGI [3]: 11.8 µM
- GI50 [4]: < 0.0265 µM
- TGI [4]: 3.08 µM
- GI50 [5]: < 0.01 µM
- TGI [5]: 15.2 µM
- GI50 [6]: 0.0508 µM
- TGI [6]: 7.98 µM
- GI50 [7]: 0.273 µM
- TGI [7]: 13 µM
- GI50 [8]: < 0.011 µM
- TGI [8]: 3.18 µM
- GI50 [9]: 0.0353 µM
- TGI [9]: 6.86 µM
- GI50 [10]: < 0.01 µM
- TGI [10]: 2.85 µM

SMILES: COc1ccc2c(c1)[n+](=O)c(/C=C/C(=O)c1cc(OC)c(OC)c(OC)c1)c(C)n2[O-]
- GI50 [1]: 3.23 µM
- TGI [1]: 14.2 µM
- GI50 [2]: 20.5 µM
- TGI [2]: 54.2 µM
- GI50 [3]: 6.33 µM
- TGI [3]: 48.5 µM
- GI50 [4]: 15.7 µM
- TGI [4]: 38.8 µM
- GI50 [5]: 14.4 µM
- TGI [5]: 60.5 µM
- GI50 [6]: 2.56 µM
- TGI [6]: 19.1 µM
- GI50 [7]: 11.9 µM
- TGI [7]: 43.1 µM
- GI50 [8]: 3.57 µM
- TGI [8]: > 100 µM
- GI50 [9]: 5.31 µM
- TGI [9]: > 100 µM
- GI50 [10]: 22.1 µM
- TGI [10]: > 100 µM

SMILES: O=C1C(=O)N(c2cc(Cl)ccc2Cl)C(=O)C(=O)C1c1nc2ccccc2s1
- TGI [1]: > 100 µM
- TGI [2]: > 100 µM
- TGI [3]: > 100 µM
- TGI [4]: > 100 µM
- TGI [5]: > 100 µM
- TGI [6]: > 100 µM
- TGI [7]: > 100 µM
- TGI [8]: 90.8 µM
- TGI [9]: > 100 µM
- TGI [10]: > 100 µM

SMILES: COc1ccc(C(=O)c2ccccc2)c(O)c1
- GI50 [1]: 50.7 µM
- TGI [1]: > 100 µM
- GI50 [2]: 16 µM
- TGI [2]: > 100 µM
- GI50 [3]: 75.6 µM
- TGI [3]: > 100 µM
- GI50 [4]: > 100 µM
- TGI [4]: > 100 µM
- GI50 [5]: 63 µM
- TGI [5]: > 100 µM
- GI50 [6]: 78.5 µM
- TGI [6]: > 100 µM
- GI50 [7]: 20.4 µM
- TGI [7]: > 100 µM
- GI50 [8]: 17 µM
- TGI [8]: > 100 µM
- GI50 [9]: 67.4 µM
- TGI [9]: > 100 µM
- GI50 [10]: > 100 µM
- TGI [10]: > 100 µM

SMILES: Cc1nc(Nc2ccc(Cl)cc2)sc1C(=O)Nc1cccc2c(=O)[nH][nH]c(=O)c12
- TGI [1]: > 100 µM
- TGI [2]: 59.4 µM
- TGI [3]: > 100 µM
- TGI [4]: > 100 µM
- TGI [5]: > 100 µM
- TGI [6]: 38.8 µM
- TGI [7]: 83.4 µM
- TGI [8]: > 100 µM
- TGI [9]: > 100 µM
- TGI [10]: > 100 µM
